Values of other authors, collected in US9616027B2, “Pramipexole sustained release tablet formulation and manufacturing method thereof and use thereof” (SHIJIAZHUANG RAPISTEP PHARMACEUTICAL TECHNOLOGY R&D INC., priority 2013, dated 2017).
Read-outs that look alike come from different tables or passages of the source.

Assays:
[1] = in vivo
[2] = not given; remark: listed apart in the source
[3] = system: patients with advanced Parkinson's disease; conditions: with levodopa

- effect of food intake on absorption [1]: Food intake shall influence absorption
- kinetic characteristics [1]: linear kinetic characteristics
- crystal modification (monohydrate) under grinding (grinding): does not change under grinding
- stability in the solid state (solid state): very stable
- stability of solution to light (solution): light sensitive
- solubility in a pH 2 to pH 7.4 buffer media ([2]; pH 2 to pH 7.4 buffer media): higher than 10 mg/ml
- Water-solubility ([2]; water): greater than 20 mg/ml
Structure (SMILES): CCCN[C@H]1CCc2nc(N)sc2C1 [Pramipexole, (S)-2-Amino-4,5,6,7-tetrahydro-6-(propylamino) benzothiazole]
- UPDRS score ([3]; 0.375 mg increased to 4.5 mg, 18 weeks of treatment): −11.0
- regulation change of the "off" state ([3]; 18 weeks of treatment): -2.1 h
- UPDRS score ([3]; 33 weeks of treatment): −11.1
